# Laboratory results from PMC9924091 (Journal of Medicinal Chemistry, 2023).
# Read-outs that look alike come from different tables or passages of the source.
# Experiments:
# SARS-CoV-2 PL^pro = biological target: T1, SARS-CoV-2 PL^pro (Severe acute respiratory syndrome coronavirus 2, UniProt P0DTD1); test: SPE-MS SARS-CoV-2 PL^pro inhibition assay; format: biochemical
# T1 construct: PL^pro papain-like protease
# [1] = test system: SARS-CoV-2 virus (Victoria strain) in VeroE6 cells; test: microbe, parasite or virus in culture; format: cell-based
# SARS-CoV-2 M^pro [2] = biological target: T2, SARS-CoV-2 M^pro (Severe acute respiratory syndrome coronavirus 2, UniProt P0DTD1); format: biochemical; set-up: M^pro main protease; made in house
# SARS-CoV-2 M^pro [3] = biological target: T2, SARS-CoV-2 M^pro; details: M^pro 2.0 μM, inhibitor 10 μM, 20 mM HEPES pH 7.5, 90 min, ambient temperature
structure (smiles),measurement,setting,value
C#C[C@H](CCSC)NC(=O)[C@@H]1[C@@H]2[C@H](CN1C(=O)[C@@H](NC(=O)C(F)(F)F)C(C)(C)C)C2(C)C [Compound 14],inhibition of SARS-CoV-2 PL^pro (in words),SARS-CoV-2 PL^pro,None of the tested M^pro inhibitors inhibited SARS-CoV-2 PL^pro
CSCC[C@@H](C#N)NC(=O)[C@@H]1[C@@H]2[C@H](CN1C(=O)[C@@H](NC(=O)C(F)(F)F)C(C)(C)C)C2(C)C [Compound 15],inhibition of SARS-CoV-2 PL^pro (in words),SARS-CoV-2 PL^pro,None of the tested M^pro inhibitors inhibited SARS-CoV-2 PL^pro
same,IC50,"SARS-CoV-2 PL^pro; isolated recombinant SARS-CoV-2 PL^pro, SPE-MS, n = 2, mean ± SD",> 100 µM
same,fold less efficient inhibition of SARS-CoV-2 progression in infected VeroE6 cells than nirmatrelvir (1),[1],~5 fold
same,EC50,"[1]; Severe acute respiratory syndrome coronavirus 2, Vero C1008",~11.8 µM
same,IC50,SARS-CoV-2 M^pro [2],0.89 ± 0.17 µM
same,fold less efficient inhibition of isolated M^pro (higher IC50) than alkyne 13,SARS-CoV-2 M^pro [2],~6 fold
C#C[C@H](C[C@@H]1CCNC1=O)NC(=O)[C@@H]1[C@@H]2[C@H](CN1C(=O)COc1ccc(OC(F)(F)F)cc1)C2(C)C [Compound 18],inhibition of SARS-CoV-2 PL^pro (in words),SARS-CoV-2 PL^pro,None of the tested M^pro inhibitors inhibited SARS-CoV-2 PL^pro
same,inhibition of SARS-CoV-2 progression in infected VeroE6 cells (in words),[1],did not show any inhibitory activity over the tested concentration range
C#C[C@H](C[C@@H]1CCNC1=O)NC(=O)[C@@H]1[C@@H]2[C@H](CN1C(=O)COc1ccc(C(F)(F)F)cc1)C2(C)C [Compound 19],inhibition of SARS-CoV-2 PL^pro (in words),SARS-CoV-2 PL^pro,None of the tested M^pro inhibitors inhibited SARS-CoV-2 PL^pro
same,inhibition of SARS-CoV-2 progression in infected VeroE6 cells (in words),[1],did not show any inhibitory activity over the tested concentration range
CC1(C)[C@@H]2[C@@H](C(=O)N[C@H](C#N)C[C@@H]3CCNC3=O)N(C(=O)COc3ccc(OC(F)(F)F)cc3)C[C@@H]21 [Compound 20],inhibition of SARS-CoV-2 PL^pro (in words),SARS-CoV-2 PL^pro,None of the tested M^pro inhibitors inhibited SARS-CoV-2 PL^pro
CC1(C)[C@@H]2[C@@H](C(=O)N[C@H](C#N)C[C@@H]3CCNC3=O)N(C(=O)COc3ccc(C(F)(F)F)cc3)C[C@@H]21 [Compound 21],inhibition of SARS-CoV-2 PL^pro (in words),SARS-CoV-2 PL^pro,None of the tested M^pro inhibitors inhibited SARS-CoV-2 PL^pro
C#C[C@H](C[C@@H]1CCNC1=O)NC(=O)[C@H](CC(C)C)NC(=O)OCc1ccccc1 [Compound 23],inhibition of SARS-CoV-2 PL^pro (in words),SARS-CoV-2 PL^pro,None of the tested M^pro inhibitors inhibited SARS-CoV-2 PL^pro
same,inhibition of SARS-CoV-2 progression in infected VeroE6 cells (in words),[1],did not show any inhibitory activity over the tested concentration range
CC(C)(C)[C@H](NC(=O)C(F)(F)F)C(=O)N1C[C@H]2[C@@H]([C@H]1C(=O)N[C@H](C#Cc1ccccc1)C[C@@H]1CCNC1=O)C2(C)C [Compound 27a],covalent reaction with M^pro by protein-observed SPE-MS (in words),SARS-CoV-2 M^pro [3],reacts covalently
same,inhibition of SARS-CoV-2 PL^pro (in words),SARS-CoV-2 PL^pro; SPE-MS PL^pro inhibition assay,None of the tested M^pro inhibitors inhibited SARS-CoV-2 PL^pro
CC(C)(C)[C@H](NC(=O)C(F)(F)F)C(=O)N1C[C@H]2[C@@H]([C@H]1C(=O)N[C@H](C#Cc1ccc([N+](=O)[O-])cc1)C[C@@H]1CCNC1=O)C2(C)C [Compound 27b],inhibition of SARS-CoV-2 PL^pro (in words),SARS-CoV-2 PL^pro,None of the tested M^pro inhibitors inhibited SARS-CoV-2 PL^pro
CC(C)(C)[C@H](NC(=O)C(F)(F)F)C(=O)N1C[C@H]2[C@@H]([C@H]1C(=O)N[C@H](C#CC(F)(F)F)C[C@@H]1CCNC1=O)C2(C)C [Compound 28],inhibition of SARS-CoV-2 PL^pro (in words),SARS-CoV-2 PL^pro,None of the tested M^pro inhibitors inhibited SARS-CoV-2 PL^pro
